# From patent publication US11053204B2, “Pyrimidinyloxy benzene derivatives as herbicides” (FMC Corporation, priority 2015, dated 2021)
# Assays:
# Assay type in all cases: in vivo
# [1] = test system: barnyardgrass (Echinochloa crus-galli); experiment: Test A preemergence, visual injury rating; conditions: for Barnyardgrass plant response rating: 0 to 100 scale (0 no effect, 100 complete control)
# Method in brief: (§1)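 Visual injury scored 0–100 (100 = complete control) against untreated controls about 10 days after treatment in a greenhouse. Test chemicals, formulated with surfactant in non-phytotoxic solvent, were sprayed on soil preemergence or on 2-10 cm, one- to two-leaf plants postemergence.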
# corn (Zea mays) [2] = experiment: Test A preemergence, visual injury rating; conditions: 1000 g ai/ha, 0 to 100 scale (0 no effect, 100 complete control)
# Method in brief: as §1
# [3] = test system: giant foxtail (Setaria faberii); experiment: Test A preemergence, visual injury rating; conditions: for Foxtail, Giant plant response rating: 0 to 100 scale (0 no effect, 100 complete control)
# Method in brief: as §1
# [4] = test system: large (Lg) crabgrass (Digitaria sanguinalis); experiment: Test A preemergence, visual injury rating; conditions: 1000 g ai/ha, 0 to 100 scale (0 no effect, 100 complete control)
# Method in brief: as §1
# [5] = test system: pigweed (Amaranthus retroflexus); experiment: Test A preemergence, visual injury rating; conditions: for Pigweed plant response rating: 0 to 100 scale (0 no effect, 100 complete control)
# Method in brief: as §1
# [6] = test system: velvetleaf (Abutilon theophrasti); experiment: Test A preemergence, visual injury rating; conditions: 1000 g ai/ha, 0 to 100 scale (0 no effect, 100 complete control)
# Method in brief: as §1
# [7] = test system: wheat (Triticum aestivum); experiment: Test A preemergence, visual injury rating; conditions: 1000 g ai/ha, 0 to 100 scale (0 no effect, 100 complete control)
# Method in brief: as §1
# [8] = test system: barnyardgrass (Echinochloa crus-galli); experiment: Test A postemergence, visual injury rating; conditions: 0 is no effect, 100 is complete control
# Method in brief: as §1
# corn (Zea mays) [9] = experiment: Test A postemergence, visual injury rating; conditions: 0 is no effect, 100 is complete control
# Method in brief: as §1
# [10] = test system: giant foxtail (Setaria faberii); experiment: Test A postemergence, visual injury rating; conditions: 0 is no effect, 100 is complete control
# Method in brief: as §1
# [11] = test system: large (Lg) crabgrass (Digitaria sanguinalis); experiment: Test A postemergence, visual injury rating; conditions: 1000 g ai/ha, 0 is no effect, 100 is complete control
# Method in brief: as §1
# [12] = test system: pigweed (Amaranthus retroflexus); experiment: Test A postemergence, visual injury rating; conditions: 0 is no effect, 100 is complete control
# Method in brief: as §1
# [13] = test system: velvetleaf (Abutilon theophrasti); experiment: Test A postemergence, visual injury rating; conditions: 1000 g ai/ha, 0 is no effect, 100 is complete control
# Method in brief: as §1
# [14] = test system: wheat (Triticum aestivum); experiment: Test A postemergence, visual injury rating; conditions: 0 is no effect, 100 is complete control
# Method in brief: as §1
# [15] = test system: barnyardgrass (Echinochloa crus-galli); experiment: Test B flooded paddy test, plant response rating; conditions: 250 g ai/ha; Flood; scale of 0 to 100 where 0 is no effect and 100 is complete control; 13 to 15 days
# Method in brief: (§2)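 Visual injury ratings against untreated controls, taken 13 to 15 days after compound was added to paddy water standing 3 cm above the soil.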
# [16] = test system: ducksalad (Heteranthera limosa); experiment: Test B flooded paddy test, plant response rating; conditions: 250 g ai/ha; Flood; scale of 0 to 100 where 0 is no effect and 100 is complete control; 13 to 15 days
# Method in brief: as §2
# rice (Oryza sativa) [17] = experiment: Test B flooded paddy test, plant response rating; conditions: 250 g ai/ha; Flood; scale of 0 to 100 where 0 is no effect and 100 is complete control; 13 to 15 days
# Method in brief: as §2
# [18] = test system: sedge, umbrella (small-flower umbrella sedge, Cyperus difformis); experiment: Test B flooded paddy test, plant response rating; conditions: 250 g ai/ha; Flood; scale of 0 to 100 where 0 is no effect and 100 is complete control; 13 to 15 days
# Method in brief: as §2
# [19] = test system: Italian ryegrass (Lolium multiflorum); experiment: Test A preemergence, visual injury rating
# Method in brief: as §1
# kochia (Kochia scoparia) [20] = experiment: Test A preemergence, visual injury rating
# Method in brief: as §1
# [21] = test system: ragweed (common ragweed, Ambrosia elatior); experiment: Test A preemergence, visual injury rating
# Method in brief: as §1
# [22] = test system: Italian ryegrass (Lolium multiflorum); experiment: Test A postemergence, visual injury rating; conditions: 0 is no effect, 100 is complete control
# Method in brief: as §1
# [23] = test system: blackgrass (Alopecurus myosuroides); experiment: Test A postemergence, visual injury rating; conditions: 0 is no effect, 100 is complete control
# Method in brief: as §1
# [24] = test system: galium (catchweed bedstraw, Galium aparine); experiment: Test A postemergence, visual injury rating; conditions: 0 is no effect, 100 is complete control
# Method in brief: as §1
# kochia (Kochia scoparia) [25] = experiment: Test A postemergence, visual injury rating; conditions: 0 is no effect, 100 is complete control
# Method in brief: as §1
# [26] = test system: ragweed (common ragweed, Ambrosia elatior); experiment: Test A postemergence, visual injury rating; conditions: 0 is no effect, 100 is complete control
# Method in brief: as §1
# [27] = test system: barnyardgrass (Echinochloa crus-galli); experiment: Test C flooded paddy test, plant response rating; conditions: flood, scale 0 to 100
# Source text: (§3) At the same time, plants selected from these crop and weed species and also chickweed (common chickweed, Stellaria media), buckwheat, wild (wild buckwheat, Polygonum convolvulus), wild mustard (Sinapis arvensis), field poppy (Papaver rhoeas), field violet (Viola arvensis), geranium, cutleaf (cutleaf geranium, Geranium dissectum), Canada thistle (Cirsium arvense), and speedwell (bird's-eye speedwell, Veronica persica), were planted in pots containing Sunshine Redi-Earth® planting medium comprising spaghnum peat moss, vermiculite, starter nutrients and dolomitic limestone and treated with postemergence applications of test chemicals formulated in the same manner. Plants ranged in height from 2 to 18 cm (1- to 4-leaf stage) for postemergence treatments. Treated plants and controls were maintained in a greenhouse for 13 to 15 d, after which time all species were compared to controls and visually evaluated. Plant response ratings, summarized in Table C, are based on a scale of 0 to 100 where 0 is no effect and 100 is complete control. A dash (-) response means no test result.
# (§4) Plant species in the flooded paddy test consisted of rice (Oryza sativa), sedge, umbrella (small-flower umbrella sedge Cyperus difformis), ducksalad (Heteranthera limosa), and barnyardgrass (Echinochloa crus-galli) grown to the 2-leaf stage for testing. At time of treatment, test pots were flooded to 3 cm above the soil surface, treated by application of test compounds directly to the paddy water, and then maintained at that water depth for the duration of the test.
# [28] = test system: ducksalad (Heteranthera limosa); experiment: Test C flooded paddy test, plant response rating; conditions: flood, scale 0 to 100
# Source text: as §3, §4
# rice (Oryza sativa) [29] = experiment: Test C flooded paddy test, plant response rating; conditions: flood, scale 0 to 100
# Source text: as §3, §4
# [30] = test system: sedge, umbrella (small-flower umbrella sedge Cyperus difformis); experiment: Test C flooded paddy test, plant response rating; conditions: flood, scale 0 to 100
# Source text: as §3, §4
# [31] = 31 g ai/ha, 0 to 100 scale, 0 no effect, 100 complete control
# [32] = 125 g ai/ha, 0 to 100 scale (0 no effect, 100 complete control)
# [33] = 31 g ai/ha, 0 to 100 scale, approximately 10 days
structure (smiles),measurement,setting,value
CC(=NOC(C)C)c1ccccc1Oc1ncc(Cl)cn1 [Compound 56],Barnyardgrass plant response rating,[1]; 1000 g ai/ha,90
same,Corn plant response rating,corn (Zea mays) [2],0
same,"Foxtail, Giant plant response rating",[3]; 1000 g ai/ha,100
same,"Crabgrass, Large plant response rating",[4],100
same,Pigweed plant response rating,[5]; 1000 g ai/ha,100
same,Velvetleaf plant response rating,[6],90
same,Wheat plant response rating,[7],0
same,Barnyardgrass plant response rating (0 to 100 scale),[8]; 1000 g ai/ha,50
same,Corn plant response rating (0 to 100 scale),corn (Zea mays) [9]; 1000 g ai/ha,30
same,"Foxtail, Giant plant response rating (0 to 100 scale)",[10]; 1000 g ai/ha,70
same,"Crabgrass, Large plant response rating (0 to 100 scale)",[11],40
same,Pigweed plant response rating (0 to 100 scale),[12]; 1000 g ai/ha,60
same,Velvetleaf plant response rating (0 to 100 scale),[13],100
same,Wheat plant response rating (0 to 100 scale),[14]; 1000 g ai/ha,10
same,"Plant response rating, Barnyardgrass",[15],0
same,"Plant response rating, Ducksalad",[16],0
same,"Plant response rating, Rice",rice (Oryza sativa) [17],0
same,"Plant response rating, Sedge, Umbrella",[18],0
FC(F)(F)COCc1c(Br)cccc1Oc1ncc(Cl)cn1 [Compound 62],"Plant response rating, Ryegrass, Italian",[19]; [31],0
same,"Ryegrass, Italian plant response rating",[19]; [32],10
same,"Plant response rating, Barnyardgrass",[1]; [31],30
same,Barnyardgrass plant response rating,[1]; 125 g ai/ha,70
same,"Plant response rating, Foxtail, Giant",[3]; [31],30
same,"Foxtail, Giant plant response rating",[3]; 125 g ai/ha,100
same,"Plant response rating, Kochia",kochia (Kochia scoparia) [20]; [31],20
same,Kochia plant response rating,kochia (Kochia scoparia) [20]; [32],70
same,"Plant response rating, Pigweed",[5]; [31],60
same,Pigweed plant response rating,[5]; 125 g ai/ha,90
same,"Plant response rating, Ragweed",[21]; [31],0
same,Ragweed plant response rating,[21]; [32],0
same,"Ryegrass, Italian plant response rating",[22]; [33],0
same,"Ryegrass, Italian plant response rating (0 to 100 scale)",[22]; 125 g ai/ha,0
same,Barnyardgrass plant response rating,[8]; [33],20
same,Barnyardgrass plant response rating (0 to 100 scale),[8]; 125 g ai/ha,40
same,Blackgrass plant response rating,[23]; [33],0
same,Blackgrass plant response rating (0 to 100 scale),[23]; 125 g ai/ha,40
same,Corn plant response rating,corn (Zea mays) [9]; [33],0
same,Corn plant response rating (0 to 100 scale),corn (Zea mays) [9]; 125 g ai/ha,30
same,Galium plant response rating,[24]; [33],30
same,Galium plant response rating (0 to 100 scale),[24]; 125 g ai/ha,80
same,"Foxtail, Giant plant response rating",[10]; [33],0
same,"Foxtail, Giant plant response rating (0 to 100 scale)",[10]; 125 g ai/ha,40
same,Kochia plant response rating,kochia (Kochia scoparia) [25]; [33],60
same,Kochia plant response rating (0 to 100 scale),kochia (Kochia scoparia) [25]; 125 g ai/ha,100
same,Pigweed plant response rating,[12]; [33],50
same,Pigweed plant response rating (0 to 100 scale),[12]; 125 g ai/ha,90
same,Ragweed plant response rating,[26]; [33],0
same,Ragweed plant response rating (0 to 100 scale),[26]; 125 g ai/ha,0
same,Wheat plant response rating,[14]; [33],0
same,Wheat plant response rating (0 to 100 scale),[14]; 125 g ai/ha,0
same,"Plant response rating, Barnyardgrass",[15],40
same,"Plant response rating, Ducksalad",[16],100
same,"Plant response rating, Rice",rice (Oryza sativa) [17],0
same,"Plant response rating, Sedge, Umbrella",[18],90
same,Barnyardgrass plant response rating,[27]; 16 g ai/ha,0
same,Barnyardgrass plant response rating,[27]; 31 g ai/ha,0
same,Barnyardgrass plant response rating,[27]; 62 g ai/ha,0
same,Barnyardgrass plant response rating,[27]; 125 g ai/ha,20
same,Ducksalad plant response rating,[28]; 16 g ai/ha,0
same,Ducksalad plant response rating,[28]; 31 g ai/ha,0
same,Ducksalad plant response rating,[28]; 62 g ai/ha,40
same,Ducksalad plant response rating,[28]; 125 g ai/ha,75
same,Rice plant response rating,rice (Oryza sativa) [29]; 16 g ai/ha,0
same,Rice plant response rating,rice (Oryza sativa) [29]; 31 g ai/ha,0
same,Rice plant response rating,rice (Oryza sativa) [29]; 62 g ai/ha,0
same,Rice plant response rating,rice (Oryza sativa) [29]; 125 g ai/ha,10
same,"Sedge, Umbrella plant response rating",[30]; 16 g ai/ha,0
same,"Sedge, Umbrella plant response rating",[30]; 31 g ai/ha,0
same,"Sedge, Umbrella plant response rating",[30]; 62 g ai/ha,60
same,"Sedge, Umbrella plant response rating",[30]; 125 g ai/ha,65
